{"source": "patent EP4803081A2", "conditions": "ester bond", "note": "Like-named read-outs stand apart in the source and are kept apart here.", "data": [{"smiles": "CCn1c(-c2cc(N3CCN4CCOC[C@@H]4C3)cnc2[C@H](C)OC)c2c3cc(ccc31)-c1csc(n1)C[C@H](NC(=O)OC(C)(C)C)C(=O)N1CCC[C@H](N1)C(=O)OCC(C)(C)C2", "values": [{"measurement": "ring closure, yield of all isomers", "setting": "from CCn1c(-c2cc(N3CCN4CCOC[C@@H]4C3)cnc2[C@H](C)OC)c(CC(C)(C)CO)c2cc(-c3csc(C[C@H](NC(=O)OC(C)(C)C)C(=O)N4CCC[C@@H](C(=O)O)N4)n3)ccc21, EDCI/HOBt/DIPEA, DCM, 11.3 mM, 25.0 °C, 16.0 h", "value": 52, "unit": "%"}]}, {"smiles": "CO[C@@H](C)c1ncc(N2CCN3CCOC[C@@H]3C2)cc1-c1c2c3cc(ccc3n1CC(F)(F)F)-c1cccc(c1)C[C@H](NC(=O)OC(C)(C)C)C(=O)N1CCC[C@H](N1)C(=O)OCC(C)(C)C2", "values": [{"measurement": "ring closure, yield of all isomers", "setting": "from CO[C@@H](C)c1ncc(N2CCN3CCOC[C@@H]3C2)cc1-c1c(CC(C)(C)CO)c2cc(-c3cccc(C[C@H](NC(=O)OC(C)(C)C)C(=O)N4CCC[C@@H](C(=O)O)N4)c3)ccc2n1CC(F)(F)F, EDCI/HOBt/DIPEA, DCM, 5.34 mM, 25.0 °C, 16.0 h", "value": 98, "unit": "%"}]}, {"smiles": "CCn1c(-c2cc(N3CCN4CCCC[C@@H]4C3)cnc2[C@H](C)OC)c2c3cc(ccc31)-c1cccc(c1)C[C@H](NC(=O)OC(C)(C)C)C(=O)N1CCC[C@H](N1)C(=O)OCC(C)(C)C2", "values": [{"measurement": "ring closure, yield of all isomers", "setting": "from CCn1c(-c2cc(N3CCN4CCCC[C@@H]4C3)cnc2[C@H](C)OC)c(CC(C)(C)CO)c2cc(-c3cccc(C[C@H](NC(=O)OC(C)(C)C)C(=O)N4CCC[C@@H](C(=O)O)N4)c3)ccc21, EDCI/HOBt/DIPEA, DCM, 5.81 mM, 25.0 °C, 16.0 h", "value": 34, "unit": "%"}]}, {"smiles": "CO[C@@H](C)c1ncc(N2CCN(C3CC3)CC2)cc1-c1c2c3cc(ccc3n1CC(F)(F)F)-c1cccc(c1)C[C@H](NC(=O)OC(C)(C)C)C(=O)N1CCC[C@H](N1)C(=O)OCC(C)(C)C2", "values": [{"measurement": "ring closure, yield of all isomers", "setting": "from CO[C@@H](C)c1ncc(N2CCN(C3CC3)CC2)cc1-c1c(CC(C)(C)CO)c2cc(-c3cccc(C[C@H](NC(=O)OC(C)(C)C)C(=O)N4CCC[C@@H](C(=O)O)N4)c3)ccc2n1CC(F)(F)F, EDCI/HOBt/DIPEA, DCM, 108.7 mM, 25.0 °C, 16.0 h", "value": 79, "unit": "%"}]}, {"smiles": "CO[C@@H](C)c1ncc(N2CCN3CCCC[C@@H]3C2)cc1-c1c2c3cc(ccc3n1CC(F)(F)F)-c1cccc(c1)C[C@H](NC(=O)OC(C)(C)C)C(=O)N1CCC[C@H](N1)C(=O)OCC(C)(C)C2", "values": [{"measurement": "ring closure, yield of all isomers", "setting": "from CO[C@@H](C)c1ncc(N2CCN3CCCC[C@@H]3C2)cc1-c1c(CC(C)(C)CO)c2cc(-c3cccc(C[C@H](NC(=O)OC(C)(C)C)C(=O)N4CCC[C@@H](C(=O)O)N4)c3)ccc2n1CC(F)(F)F, EDCI/HOBt/DIPEA, DCM, 12.85 mM, 0.0 °C, 16.0 h", "value": 65, "unit": "%"}]}, {"smiles": "CC1(C)COC(=O)[C@@H]2CCCN(N2)C(=O)[C@@H](NC(=O)OC(C)(C)C)Cc2cccc(c2)-c2ccc3[nH]c(I)c(c3c2)C1", "values": [{"measurement": "ring closure, yield of all isomers", "setting": "from CC(C)(CO)Cc1c(I)[nH]c2ccc(-c3cccc(C[C@H](NC(=O)OC(C)(C)C)C(=O)N4CCC[C@@H](C(=O)O)N4)c3)cc12, EDCI/HOBt/DIPEA, DCM, 12.77 mM, 0.0 °C, 16.0 h", "value": 79.8, "unit": "%"}]}, {"smiles": "CCn1c(-c2cc(N3CCN(C4CC4)CC3)cnc2[C@H](C)OC)c2c3cc(ccc31)C1=CCCN(C1)C[C@H](NC(=O)OC(C)(C)C)C(=O)N1CCC[C@H](N1)C(=O)OCC(C)(C)C2", "values": [{"measurement": "ring closure, yield of all isomers", "setting": "from CCn1c(-c2cc(N3CCN(C4CC4)CC3)cnc2[C@H](C)OC)c(CC(C)(C)CO)c2cc(C3=CCCN(C[C@H](NC(=O)OC(C)(C)C)C(=O)N4CCC[C@@H](C(=O)O)N4)C3)ccc21, EDCI/HOBt/DIPEA, DCM, 10.0 mM, 35.0 °C, 16.0 h", "value": 53, "unit": "%"}]}, {"smiles": "CO[C@@H](C)c1ncc(N2CCN(C3CC3)CC2)cc1-c1c2c3cc(ccc3n1CC(F)(F)F)-c1csc(n1)C[C@H](NC(=O)OC(C)(C)C)C(=O)N1CCC[C@H](N1)C(=O)OCC(C)(C)C2", "values": [{"measurement": "ring closure, yield of all isomers", "setting": "from CO[C@@H](C)c1ncc(N2CCN(C3CC3)CC2)cc1-c1c(CC(C)(C)CO)c2cc(-c3csc(C[C@H](NC(=O)OC(C)(C)C)C(=O)N4CCC[C@@H](C(=O)O)N4)n3)ccc2n1CC(F)(F)F, EDCI/HOBt/DIPEA, DCM, 21.07 mM, 25.0 °C, 16.0 h", "value": 51, "unit": "%"}]}, {"smiles": "CCn1c(-c2cc(N3CCN(C4CC4)CC3)cnc2[C@H](C)OC)c2c3cc(ccc31)N1CCO[C@@H](C[C@H](NC(=O)OCc3ccccc3)C(=O)N3CCC[C@H](N3)C(=O)OCC(C)(C)C2)C1", "values": [{"measurement": "ring closure, yield of all isomers", "setting": "from CCn1c(-c2cc(N3CCN(C4CC4)CC3)cnc2[C@H](C)OC)c(CC(C)(C)CO)c2cc(N3CCO[C@@H](C[C@H](NC(=O)OCc4ccccc4)C(=O)N4CCC[C@@H](C(=O)O)N4)C3)ccc21, EDCI/HOBt/DIPEA, DCM, 11.25 mM, 30.0 °C, 16.0 h", "value": 50, "unit": "%"}]}, {"smiles": "CCn1c(-c2cccnc2[C@H](C)OC)c2c3cc(ccc31)C1=CCCN(C1)CC(NC(=O)OC(C)(C)C)C(=O)N1CCC[C@H](N1)C(=O)OCC(C)(C)C2", "note": "(some centres unmarked)", "values": [{"measurement": "ring closure, yield of all isomers", "setting": "from CCn1c(-c2cccnc2[C@H](C)OC)c(CC(C)(C)CO)c2cc(C3=CCCN(CC(NC(=O)OC(C)(C)C)C(=O)N4CCC[C@@H](C(=O)O)N4)C3)ccc21, EDCI/HOBt/DIPEA, DCM, 7.14 mM, 30.0 °C, 16.0 h", "value": 40, "unit": "%"}]}, {"smiles": "CCn1c(-c2cc(N3CCN4CCCC[C@@H]4C3)cnc2[C@H](C)OC)c2c3cc(ccc31)-c1csc(n1)C[C@H](NC(=O)OC(C)(C)C)C(=O)N1CCC[C@H](N1)C(=O)OCC(C)(C)C2", "values": [{"measurement": "ring closure, yield of all isomers", "setting": "from CCn1c(-c2cc(N3CCN4CCCC[C@@H]4C3)cnc2[C@H](C)OC)c(CC(C)(C)CO)c2cc(-c3csc(C[C@H](NC(=O)OC(C)(C)C)C(=O)N4CCC[C@@H](C(=O)O)N4)n3)ccc21, EDCI/HOBt/DIPEA, DCM, 11.3 mM, 25.0 °C, 16.0 h", "value": 49, "unit": "%"}]}, {"smiles": "CCn1c(-c2cc(N3CCN4CCOC[C@@H]4C3)cnc2[C@H](C)OC)c2c3cc(ccc31)-c1cccc(c1)C[C@H](NC(=O)OC(C)(C)C)C(=O)N1CCC[C@H](N1)C(=O)OCC(C)(C)C2", "values": [{"measurement": "ring closure, yield of all isomers", "setting": "from CCn1c(-c2cc(N3CCN4CCOC[C@@H]4C3)cnc2[C@H](C)OC)c(CC(C)(C)CO)c2cc(-c3cccc(C[C@H](NC(=O)OC(C)(C)C)C(=O)N4CCC[C@@H](C(=O)O)N4)c3)ccc21, EDCI/HOBt/DIPEA, DCM, 7.56 mM, 25.0 °C, 16.0 h", "value": 81, "unit": "%"}]}, {"smiles": "CO[C@@H](C)c1ncc(N2CCN(C3CC3)CC2)cc1-c1c2c3cc(ccc3n1CC(F)(F)F)N1CCO[C@@H](C[C@H](NC(=O)OC(C)(C)C)C(=O)N3CCC[C@H](N3)C(=O)OCC(C)(C)C2)C1", "values": [{"measurement": "ring closure, yield of all isomers", "setting": "from CO[C@@H](C)c1ncc(N2CCN(C3CC3)CC2)cc1-c1c(CC(C)(C)CO)c2cc(N3CCO[C@@H](C[C@H](NC(=O)OC(C)(C)C)C(=O)N4CCC[C@@H](C(=O)O)N4)C3)ccc2n1CC(F)(F)F, EDCI/HOBt/DIPEA, DCM, 9.22 mM, 25.0 °C, 16.0 h", "value": 64, "unit": "%"}]}, {"smiles": "CCn1c(-c2cc(N3CCN4CCCC[C@@H]4C3)cnc2[C@H](C)OC)c2c3cc(ccc31)C1=CCCN(C1)C[C@H](NC(=O)OC(C)(C)C)C(=O)N1CCC[C@H](N1)C(=O)OCC(C)(C)C2", "values": [{"measurement": "ring closure, yield of all isomers", "setting": "from CCn1c(-c2cc(N3CCN4CCCC[C@@H]4C3)cnc2[C@H](C)OC)c(CC(C)(C)CO)c2cc(C3=CCCN(C[C@H](NC(=O)OC(C)(C)C)C(=O)N4CCC[C@@H](C(=O)O)N4)C3)ccc21, EDC•HCl/HOBt/DIPEA, DCM, 11.3 mM, 0.0 °C, 16.0 h", "value": 66, "unit": "%"}]}, {"smiles": "CCn1c(-c2cccnc2[C@H](C)OC)c2c3cc(ccc31)N1CCO[C@@H](C[C@H](NC(=O)OCc3ccccc3)C(=O)N3CCC[C@H](N3)C(=O)OCC(C)(C)C2)C1", "values": [{"measurement": "ring closure, yield of all isomers", "setting": "from CCn1c(-c2cccnc2[C@H](C)OC)c(CC(C)(C)CO)c2cc(N3CCO[C@@H](C[C@H](NC(=O)OCc4ccccc4)C(=O)N4CCC[C@@H](C(=O)O)N4)C3)ccc21, EDCI/HOBt/DIPEA, DCM, 12.75 mM, 25.0 °C, 16.0 h", "value": 66, "unit": "%"}]}, {"smiles": "CCn1c(-c2cccnc2[C@H](C)OC)c2c3cc(ccc31)-c1csc(n1)C[C@H](NC(=O)OC(C)(C)C)C(=O)N1CCC[C@H](N1)C(=O)OCC(C)(C)C2", "values": [{"measurement": "ring closure, yield of all isomers", "setting": "from CCn1c(-c2cccnc2[C@H](C)OC)c(CC(C)(C)CO)c2cc(-c3csc(C[C@H](NC(=O)OC(C)(C)C)C(=O)N4CCC[C@@H](C(=O)O)N4)n3)ccc21, EDCI/HOBt/DIPEA, DCM, 12.65 mM, 25.0 °C, 16.0 h", "value": 81, "unit": "%"}]}, {"smiles": "CCn1c(-c2cc(N3CCN4CCC[C@@H]4C3)cnc2[C@H](C)OC)c2c3cc(ccc31)-c1cccc(c1)C[C@H](NC(=O)OC(C)(C)C)C(=O)N1CCC[C@H](N1)C(=O)OCC(C)(C)C2", "values": [{"measurement": "ring closure, yield of all isomers", "setting": "from CCn1c(-c2cc(N3CCN4CCC[C@@H]4C3)cnc2[C@H](C)OC)c(CC(C)(C)CO)c2cc(-c3cccc(C[C@H](NC(=O)OC(C)(C)C)C(=O)N4CCC[C@@H](C(=O)O)N4)c3)ccc21, EDCI/HOBt/DIPEA, DCM, 16.7 mM, 25.0 °C, 16.0 h", "value": 42, "unit": "%"}]}, {"smiles": "CCn1c(-c2cc(N3CCN4CCCC[C@@H]4C3)cnc2[C@H](C)OC)c2c3cc(ccc31)N1CCO[C@@H](C[C@H](NC(=O)OC(C)(C)C)C(=O)N3CCC[C@H](N3)C(=O)OCC(C)(C)C2)C1", "values": [{"measurement": "ring closure, yield of all isomers", "setting": "from CCn1c(-c2cc(N3CCN4CCCC[C@@H]4C3)cnc2[C@H](C)OC)c(CC(C)(C)CO)c2cc(N3CCO[C@@H](C[C@H](NC(=O)OC(C)(C)C)C(=O)N4CCC[C@@H](C(=O)O)N4)C3)ccc21, EDCI/HOBt/DIPEA, DMF, 11.2 mM, 25.0 °C, 16.0 h", "value": 73, "unit": "%"}]}, {"smiles": "CCn1c(-c2cc(N3CCN4CCOC[C@@H]4C3)cnc2[C@H](C)OC)c2c3cc(ccc31)C1=CCCN(C1)C[C@H](NC(=O)OC(C)(C)C)C(=O)N1CCC[C@H](N1)C(=O)OCC(C)(C)C2", "values": [{"measurement": "ring closure, yield of all isomers", "setting": "from CCn1c(-c2cc(N3CCN4CCOC[C@@H]4C3)cnc2[C@H](C)OC)c(CC(C)(C)CO)c2cc(C3=CCCN(C[C@H](NC(=O)OC(C)(C)C)C(=O)N4CCC[C@@H](C(=O)O)N4)C3)ccc21, EDC·HCl/HOBt/DIPEA, DCM, 11.3 mM, 0.0 °C, 2.0 h", "value": 67, "unit": "%"}]}, {"smiles": "CCn1c(-c2cc(N3CCN(C(=O)OCc4ccccc4)CC3)cnc2[C@H](C)OC)c2c3cc(ccc31)-c1csc(n1)C[C@H](NC(=O)OC(C)(C)C)C(=O)N1CCC[C@H](N1)C(=O)OCC(C)(C)C2", "values": [{"measurement": "ring closure, yield of all isomers", "setting": "from CCn1c(-c2cc(N3CCN(C(=O)OCc4ccccc4)CC3)cnc2[C@H](C)OC)c(CC(C)(C)CO)c2cc(-c3csc(C[C@H](NC(=O)OC(C)(C)C)C(=O)N4CCC[C@@H](C(=O)O)N4)n3)ccc21, EDCI/HOBt/DIPEA, MeCN, 10.34 mM, 25.0 °C, 16.0 h", "value": 55, "unit": "%"}]}]}
